According to patent publication US8283324B2, “Immunomodulatory and anti-tumour peptides” (Centro de Ingenieria Genetica y Biotecnologia, priority 2006, dated 2012):

Columns and labels:
IL-12 gene = IL-12 gene expression in human mononuclear cells (RT-PCR); assay type: cell-based; conditions: 40 μg/ml, 18 h; mRNA normalized against β-actin; FIG. 3A
Protocol: (§1) For this assay, human mononuclear cells were isolated by a Ficoll-Hypaque gradient from a leukocyte concentrate or “Buffy Coat” of a donor. Up to 5×10^6 were seeded in 24-well plates in RPMI 1640 medium supplemented with 10% calf fetal serum. Each peptide was further added at 40 μg/ml in a 0.1 ml volume of RPMI medium and cells were cultured for 18 h at 37° C. and 5% of CO2. Total RNA was extracted by using the TriReagent method. Afterwards, the expressions of IFN-α, IFN-γ and IL-12 genes were determined by the reverse transcription reaction and PCR amplification (RT-PCR kit, Perkin Elmer). Results are shown as relative amounts of messenger RNA normalized against expression levels of the β-actin housekeeping gene.

[1] = competition ELISA for LPS-binding capacity; parameters: species or system E. coli; conditions: competition with biotinylated LALF32-51 at 0.2 μM; analogous peptides 10 μM to 0.01 μM; FIG. 1A
Protocol: This assay consists on a competition ELISA system (Hardy E., et al (1994) Enhanced ELISA sensitivity using TCA for efficient coating of biologically active LPS or Lipid A to the solid phase. J. Immunol. Meth. Vol. 176:111-116). Polystyrene plates (Costar, USA) were coated with LPS from E. coli 0111:B4 (1 μg/ml) with 0.2% trichloroacetic acid (TCA). Plates were incubated overnight at 37° C. and further washed ten times with 1× phosphate-buffered saline (1×PBS) plus 0.1% tween-20 (washing solution). The binding of analogous peptides to the LPS fixed to the solid surface was evaluated by a competition ELISA with the biotinylated LALF32-51 peptide at 0.2 μM, obtaining a 90% of maximum LPS binding. To estimate the inhibition curves, different concentrations of the analogous peptides were used, from 10 μM to 0.01 μM and the curve of the LALF32-51 peptide as experimental control. The biotinylated LALF32-51 was incubated in the presence of the analogous peptides for 2 h at 37° C. and plates were washed 5 times after that time with washing solution. The biotinylated LALF32-51 bound to LPS was detected by incubating for 45 min at 37° C. with a streptavidin-peroxidase conjugate at a 1:2,000 dilution. Plates were washed 5 times with washing solution and the substrate solution was added (0.05 M citrate-phosphate buffer, pH 5.5, 1 tablet of 3,3′,5,5′-tetramethylbenzidine and 0.025% hydrogen peroxide). After 15 min incubation, the reaction was stopped by adding 2 M sulphuric acid. The absorbance was quantified at 450 nm in a plate reader (Sensident Scan). There is a correlation between optical density values and the LPS-binding capacity of analogous peptides. Analogous peptides with higher LPS-binding capacity show inhibition curves of lower O.D. compared to the inhibition curve of the LALF32-51 peptide.
Analogous peptides with lower LPS-binding capacity present inhibition curves with […], compared to the inhibition curve of the LALF32-51 peptide.
FIG. 1B represents the inhibition percentages of analogous peptides, at a fixed […] concentration, according to their capacity to displace the binding of the biotinylated LALF32-51 (0.2 μM) to LPS adsorbed to the solid surface. % de inhibición={1−(([O.D.]sample−[O.D.]min)/([O.D.]max−[O.D.]min))}×100 [O.D.] sample: Optical density value in the presence of a fixed concentration of analogous peptides; [O.D.] min: ELISA background; [O.D.] max: Optical density value without analogous peptides.

IFN-α gene = IFN-α gene expression in human mononuclear cells (RT-PCR); assay type: cell-based; conditions: 40 μg/ml, 18 h
Protocol: as §1

IFN-γ gene = IFN-γ gene expression in human mononuclear cells (RT-PCR); assay type: cell-based; conditions: 40 μg/ml, 18 h; mRNA normalized against β-actin; FIG. 3A
Protocol: as §1

MB16-F10 tumor cells = test: anti-tumoral effect in a melanoma model; assay type: in vivo, C57BI/6 female mice; conditions: 4 mg per kg
Protocol: Eight-to-ten weeks-old C57BI/6 female mice were used for this assay (n=10 animals per experimental group). For tumor graft, MB16-F10 tumor cells were used, being resuspended in phosphate-buffered saline (PBS). An amount of 15,000 cells were inoculated in a 200 μl volume by subcutaneous route in the right hind limb. After 4 days, the L-2 peptide was administered, with the second injection administered 7 after the first, and the third immunization was administered 14 days after. In this assay was evaluated a dose of 4 mg of peptide per kg of animal weight. Parameters evaluated to measure the anti-tumoral effect of the given peptide during this assay were the time of tumor grafting and the animal survival.

[2] = test system: H-125 (non-small human ling cancer cells); test: growth of tumor cells, crystal violet, H-125; assay type: cell-based; conditions: 9 μM to 300 μM, 72 h; FIG. 9
Protocol: For this assay, TC-1, H-125 (non-small human ling cancer cells) and L929) murine fibroblast) cells were seeded in 96-well culture plates (Costar) at a 2×10^4 cells/ml in Dulbecco's modified Eagle's medium (DMEM)(Gibco) supplemented with Calf Fetal Serum (Gibco). After 24 h, the peptides were added to the culture in a range of 9 μM to 300 μM. […] Plates were extensively washed with tap water and plates were read at 562 nm. A pro-apoptotic peptide with a marked anti-proliferative effect in vitro was employed as positive control (Perea, S., et al (2004) Antitumor Effect of a Novel Proapoptotic Peptide that Impairs the Phosphorylation by the Protein Kinase 2 Cancer Research 64: 7127-7129).

## HARIKPTFRRLKWKYKGKFW [Peptide L-2, alanine-substituted analogue of LALF 32-51]
IL-12 gene
  expression of the IL-12 gene: capable of inducing the expression
[1]
  LPS-binding capacity: lose the capacity to bind LPS
IFN-α gene; FIG. 3B
  expression of the IFN-α gene compared to the LALF32-51 peptide: more effective
IFN-α gene; mRNA normalized against β-actin, FIG. 3A
  expression of the IFN-α gene: capable of inducing the expression
IFN-γ gene
  expression of the IFN-γ gene: capable of inducing the expression
MB16-F10 tumor cells; three administrations starting after 4 days, Log Rank *p<0.05, FIG. 5A
  time of tumor grafting: significantly delayed tumor grafting
MB16-F10 tumor cells; three administrations, Log Rank *p<0.05, FIG. 5B
  animal survival: significantly increased the survival of animals
MB16-F10 tumor cells; FIG. 5B
  animal survival compared to the LALF32-51 peptide: more effective than the LALF32-51 peptide
[2]
  anti-proliferative effect: dose-dependent anti-proliferative effect
